Results published in patent US8309574B2, “Nuclear transfer promoter for Rac protein and method of screening the same” (Kowa Company, Ltd., priority 2004, dated 2012).
“Also recorded” adds a separate entry of the source.

What was measured:
Rac protein = test: Nuclear transfer of GFP/Rac fusion protein in transformed HUVEC, observed by fluorescence microscopy; type: cell-based; details: HUVEC expressing GFP/Rac fusion protein; pitavastatin 1 μM, 15 hours stationary culture; GFP fluorescence, nuclei stained with Hoechst
Procedure: The present inventors measured the behavior of Rac protein in HUVEC with an HMG-CoA reductase inhibitor, particularly pitavastatin. For this measurement, a gene encoding a Rac/fluorescence protein GFP fusion protein was introduced into HUVEC to prepare a transformed cell expressing a GFP/Rac fusion protein. This transformed cell was cultured, and the state of Rac distributed in the cell in the presence or absence of pitavastatin was examined by observing the fluorescence of GFP. A gene encoding the whole area of a Rac translation region was introduced into a predetermined position of a commercial plasmid pEGFP-C1 for preparation of a fusion protein consisting of GFP and a desired protein, to construct a plasmid comprising the GFP-Rac gene. After HUVECs were put to a 6-well plate and then cultured overnight in EGM-2 medium. Using Fugene 6, the plasmid construct DNA prepared above was added in an amount of 0.8 μg/well to the cells. The cells were further cultured for 21 hours in EGM-2 medium, and then the fluorescence of GFP was observed under a fluorescence microscope. Six hours after the culture of HUVECs to which the plasmid construct DNA had been added was initiated, pitavastatin was added to the cells to a final concentration of 1 μM. And then the cells were subjected to stationary culture for 15 hours, fixed onto a prepared slide and observed under a fluorescence microscope. […]

[1] = system: vascular endothelial cells; details: cited from earlier work

In the case of `O=C(O)C[C@H](O)C[C@H](O)/C=C/c1c(C2CC2)nc2ccccc2c1-c1ccc(F)cc1` [pitavastatin, (3R,5S,6E)-7-[2-cyclopropyl-4-(4-fluorophenyl)-3-quinolyl]-3,5-dihydroxy-6-heptenoic acid], the “state of Rac distributed in the cell (transfer of GFP-Rac into the nucleus)” value (Rac protein) is listed as “fluorescence of GFP was localized in a certain area of the cells; also recorded: GFP-Rac is transferred to a nucleus”, the “expression of MCP-1” value [1] is listed as “suppresses” and the “expression of NO synthase” value [1] is listed as “promotes”. For the same molecule, the “expression of PAI-1” value [1] was “suppresses”, the “expression of PTX3” value [1] was “suppresses” and the expression of endothelin [1] was “suppresses”. The “expression of inflammatory cytokine IL-8” value [1] was “suppresses” and the expression of thrombomodulin [1] was “promotes”.
